We go through 1 compound from patent publication US20060014730A1, “Ansamycin formulations and methods for producing and using same” (Conforma Therapeutics Corporation, priority 2002, published 2006).

Data set [1] relates to adult patients with advanced solid tumors. The conditions noted are these: daily 1-hour infusion for 5 days every three weeks; cited from earlier work.
The conditions of data set [2]: cited from earlier work; for Cmax: human, in vivo.
Data set [3] can be described thus: Dissolution of 17-AAG in Phospholipon in Miglyol solution without ethanol. The conditions noted are these: lower melting point form crystallized from isopropanol rather than ethanol; room temperature. It is filed as physicochemical. From the text: Alternatively, 17-AAG can be brought […], adding to this the drug, e.g., 17-AAG, and mixing, e.g., by stirring and/or sonication.

Data set [4] in a line: Drug concentration achieved in the emulsion. Type of data set: physicochemical.
[5] abbreviates: adult patients, daily 1-hour infusion for 5 days every three weeks.

Where two headings read alike, the source gives them in different places. Bounds are passed on as bounds.

Regarding `C=CCNC1=C2C[C@@H](C)C[C@H](OC)[C@H](O)[C@@H](C)/C=C(\C)[C@H](OC(N)=O)[C@@H](OC)/C=C\C=C(/C)C(=O)NC(=CC1=O)C2=O` [Compound 17-AAG, 17-allylamino-geldanamycin], the “maximum tolerated dose (MTD)” value in data set [1] is given as 40 mg/m^2. Moreover, in data set [2] (setting [5]), the “clearance (mean+/-SD)” value is 41.0 ± 13.5 L/h, the “steady-state volume (mean+/-SD)” value was 86.6+/−34.6 L/m^2 and the “terminal half-life (mean+/-SD)” value is 2.5 ± 0.5 h. Besides, the maximum concentration (Cmax) in data set [2] (40 mg/m2) is 1860 nM. For the same compound, the Cmax in data set [2] (56 mg/m2) was 3170 nM. In data set [3], the “dissolution into the Phospholipon in Miglyol solution” value is reported as “more readily can be dissolved”. In addition, the “concentration achieved in the oil phase alone” value in data set [4] (oil phase alone) is 20000 to 30000 µg/mL. The concentration achieved overall in data set [4] (whole emulsion) was ≤ 3000 µg/mL.

As usually defined, the Cmax is the highest concentration seen after dosing.
